pIC50: −log10 of the molar value.
Target: T1, récepteur vasculaire de l'angiotensine II (Oryctolagus cuniculus, UniProt P34976)
T1 construct: réponse contractile induite par l'angiotensine II dans des anneaux isolés d'aorte de lapin; from tissue; host or cells: isolated rabbit aortic rings
T1 sequence (P34976 1-359): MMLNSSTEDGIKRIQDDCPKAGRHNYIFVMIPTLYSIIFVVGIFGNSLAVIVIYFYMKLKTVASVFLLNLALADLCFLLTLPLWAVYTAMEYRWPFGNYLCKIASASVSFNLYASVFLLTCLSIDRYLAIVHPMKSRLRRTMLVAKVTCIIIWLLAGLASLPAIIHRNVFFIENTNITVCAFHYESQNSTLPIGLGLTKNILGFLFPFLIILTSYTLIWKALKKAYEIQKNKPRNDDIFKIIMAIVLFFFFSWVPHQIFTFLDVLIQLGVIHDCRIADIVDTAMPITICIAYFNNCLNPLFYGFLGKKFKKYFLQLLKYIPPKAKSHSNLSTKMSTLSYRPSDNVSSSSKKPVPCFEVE
Test: Antagonism of the angiotensin II-induced contractile response in isolated rabbit aortic rings
Set-up: species or system lapin
Conditions: contraction by angiotensine II 3.10⁻⁹ M, test product preincubated 15 minutes, 37°C
Procedure: L'activité des composés selon l'invention comme antagonistes du récepteur vasculaire de l'angiotensine II a été évaluée par leur efficacité à antagoniser la réponse contractile induite par l'angiotensine II dans des anneaux isolés d'aorte de lapin. Les anneaux sont suspendus dans un bain de Krebs-Henseleit maintenu à 37°C et aéré par un mélange O₂/CO₂ (95/5 , v/v) puis étirés à une tension de repos de 2 g. Après une heure de repos, on provoque une contraction par l'angiotensine II (3.10⁻⁹ M) en présence du produit à tester préincubé pendant 15 minutes. La concentration (exprimée en nanomole) de produit à tester produisant une inhibition de 50 % de la réponse contractile (IC₅₀) est calculée à partir de la courbe concentration-réponse . Les résultats obtenus avec un certain nombre de composés selon l'invention sont regroupés dans le tableau VIII.

SMILES	pIC50
CCCCc1nc(Cl)c(CNc2c(C(=O)O)cc(OC)c(OC)c2OC)n1Cc1ccc(C(=O)O)cc1 [compound 40]	7.24
CCCCc1ncc(CNc2ccccc2C(=O)OCCOC)n1Cc1ccc(C(=O)O)cc1 [compound 158]	7.12
CCCCCC(=O)OCOC(=O)c1ccccc1NCc1cnc(CCCC)n1Cc1ccc(C(=O)O)cc1 [compound 148]	7.92
CCCCc1nc(Cl)c(CNc2cc3ccccc3cc2C(=O)O)n1Cc1ccc(C(=O)O)cc1 [compound 47]	7.15
CCCCc1ncc(CNc2ccccc2C(=O)Oc2ccccc2)n1Cc1ccc(C(=O)O)cc1 [compound 157]	7.27
CCCCc1nc(Cl)c(CNc2ccccc2C(=O)O)n1Cc1ccc(-c2nnn[nH]2)cc1 [compound 51]	7.97
CCCCCOC(=O)c1ccccc1NCc1cnc(CCCC)n1Cc1ccc(C(=O)O)cc1 [compound 170]	7.10
CCCCc1ncc(CNc2ccccc2C(N)=O)n1Cc1ccc(C(=O)O)cc1 [compound 209]	7.15
CCCCc1nc(Cl)c(CNc2c(Cl)cc(Cl)cc2C(=O)O)n1Cc1ccc(C(=O)O)cc1 [compound 39]	6.97
CCCCNC(=O)c1ccccc1NCc1cnc(CCCC)n1Cc1ccc(C(=O)O)cc1 [compound 210]	7.08
CCCCc1ncc(CNc2ccccc2C(=O)OCC(=O)N(CCC)CCC)n1Cc1ccc(C(=O)O)cc1 [compound 134]	7.46
CCCCc1ncc(CNc2ccccc2C(=O)OCC2COC(C)(C)O2)n1Cc1ccc(C(=O)O)cc1 (centres unmarked) [exemple 26, acide 2-[[[2-butyl-1-[(4-carboxyphényl)méthyl]-1H-imidazol-5-yl]méthyl]amino]-benzoïque, 2,2-diméthyl-1,3-dioxolane-4-yl-méthyl ester]	7.00
CCCCc1ncc(CNc2ccccc2C(=O)O)n1Cc1ccc(C(=O)NS(=O)(=O)c2ccc(Cl)cc2)cc1 [compound 202]	7.83
CCCCc1nc(Cl)c(CNc2ccc(Cl)cc2C(=O)O)n1Cc1ccc(C(=O)O)cc1 [compound 49]	7.88
CCCCc1ncc(CNc2ccccc2C(=O)OCC(O)CO)n1Cc1ccc(C(=O)O)cc1 (centres unmarked) [exemple 28, acide 2-[[[2-butyl-1-[(4-carboxyphényl)méthyl]-1H-imidazol-5-yl]méthyl]amino]-benzoïque, 2,3-dihydroxy-propyl ester]	7.10
CCCCc1ncc(CNc2ccccc2C(=O)OCOC(=O)CCC)n1Cc1ccc(C(=O)NS(=O)(=O)c2ccccc2C)cc1 [compound 187]	8.15
CCCCc1ncc(CNc2ccccc2C(=O)OCC2CC2)n1Cc1ccc(C(=O)O)cc1 [compound 163]	7.30
CCCc1ncc(CNc2cc([N+](=O)[O-])ccc2C(=O)O)n1Cc1ccc(C(=O)O)cc1 [compound 212]	7.34
CCCCc1ncc(CNc2ccccc2C(=O)O)n1Cc1ccc(C(=O)OCC2CC2)cc1 [compound 178]	7.17
CCCCc1nc(Cl)c(CNc2ccccc2C(=O)O)n1Cc1ccc(C(=O)NS(=O)(=O)c2ccccc2C)cc1 [compound 66]	8.06

SMILES	pIC50
CCCCc1ncc(CNc2ccccc2C(=O)OCCC(C)C)n1Cc1ccc(C(=O)O)cc1 [compound 161]	7.19
CCCCc1ncc(CNc2ccccc2C(=O)OC(C)OC(=O)C2CCCCC2)n1Cc1ccc(C(=O)O)cc1 (centres unmarked) [compound 145]	7.40
CCCCOC(=O)c1ccccc1NCc1cnc(CCCC)n1Cc1ccc(C(=O)O)cc1 [compound 166]	7.82
CCCCc1nc(Cl)c(Cn2c(C(=O)O)cc3ccccc32)n1Cc1ccc(C(=O)O)cc1 [compound 34]	8.08
CCCCc1ncc(CNc2ccccc2C(=O)OCC(C)C)n1Cc1ccc(C(=O)O)cc1 [compound 164]	7.40
CCCCc1ncc(CNc2ccccc2C(=O)OCC(=O)N(CCC)CCC)n1Cc1ccc(C(=O)OCC(=O)N(CCC)CCC)cc1 [compound 181]	7.10
CCCCc1nc(Cl)c(CN(C(C)=O)c2ccccc2C(=O)O)n1Cc1ccc(C(=O)O)cc1 [compound 55]	7.16
CCCCc1ncc(Cn2c(C(=O)O)cc3ccccc32)n1Cc1ccc(C(=O)O)cc1 [compound 33]	8.15
CCCCc1ncc(CNc2ccccc2C(=O)OCC(=O)N(CC)CC)n1Cc1ccc(C(=O)OC)cc1 [compound 76]	7.05
CCCCc1ncc(CNc2ccccc2C(=O)OCC(=O)N(CC)CC)n1Cc1ccc(C(=O)OCC(=O)N(CC)CC)cc1 [exemple 68, acide 2-[[[2-butyl-1-[(4-((((diéthylamino)carbonyl)méthoxy)carbonyl)phényl)méthyl]-1H-imidazol-5-yl]méthyl]amino]-benzoïque, ((diéthylamino)carbonyl)méthyl ester]	7.52
CCCCc1ncc(CNc2ccccc2C(=O)OCCc2ccccc2)n1Cc1ccc(C(=O)O)cc1 [compound 156]	7.09
CCCCc1ncc(CNc2ccccc2C(=O)O)n1Cc1ccc(C(=O)NS(=O)(=O)c2cccc(Cl)c2)cc1 [compound 201]	8.00
CCCCc1ncc(CNc2ccccc2C(=O)O)n1Cc1ccc(C(=O)NS(=O)(=O)c2ccc(OC)cc2)cc1 [compound 204]	8.02
CCCCc1nc(Cl)c(CNc2cc([N+](=O)[O-])ccc2C(=O)O)n1Cc1ccc(C(=O)O)cc1 [compound 46]	7.98
CCCCc1ncc(CNc2ccccc2C(=O)O)n1Cc1ccc(C(=O)OCC)cc1 [compound 174]	7.10
CCCCc1ncc(CNc2ccccc2C(=O)OCC(=O)OCC)n1Cc1ccc(C(=O)O)cc1 [compound 141]	8.00
CCCCc1ncc(CNc2ccccc2C(=O)OCC(=O)CC)n1Cc1ccc(C(=O)O)cc1 [compound 155]	8.06
CCCCc1nc(Cl)c(CNc2ccccc2-c2nnn[nH]2)n1Cc1ccc(C(=O)O)cc1 [compound 52]	7.40
CCCc1ncc(CNc2ccccc2C(=O)O)n1Cc1ccc(C(=O)O)cc1 [compound 36]	8.15

The next molecules have a higher pIC50 than those just listed; values first:

pIC50	SMILES
8.28	CCCCc1nc(Cl)c(CNc2cc(Cl)ccc2C(=O)O)n1Cc1ccc(C(=O)O)cc1 [compound 48]
8.28	CCCCc1nc(I)c(CNc2ccccc2C(=O)O)n1Cc1ccc(C(=O)O)cc1 [compound 44]
8.70	CCCCc1ncc(CNc2ccccc2C(=O)O)n1Cc1ccc(C(=O)NS(=O)(=O)c2ccccc2N=[N+]=[N-])cc1 [compound 228]
8.24	CCCCc1nc(Cl)c(CNc2ccccc2C(=O)O)n1Cc1ccc(C(=O)O)cc1 [compound 50]
8.92	CCCCc1ncc(CNc2cc([N+](=O)[O-])ccc2C(=O)O)n1Cc1ccc(C(=O)O)cc1 [compound 35]
8.30	CCCCc1ncc(CNc2ccccc2C(=O)OCOC(=O)CCC)n1Cc1ccc(C(=O)O)cc1 [compound 149]
8.29	CCCc1nc(Cl)c(CNc2ccccc2C(=O)O)n1Cc1ccc(C(=O)O)cc1 [compound 42]
8.29	CCCCc1nc(Cl)c(CNc2ccccc2C(=O)O)n1Cc1ccc(C(=O)O)cc1Cl [compound 41]
9.10	CCCCc1ncc(CNc2ccccc2C(=O)O)n1Cc1ccc(C(=O)NS(=O)(=O)c2ccccc2Cl)cc1 [compound 211]
8.26	CCCCc1ncc(CNc2ccccc2C(=O)O)n1Cc1ccc(C(=O)NS(C)(=O)=O)cc1 [compound 205]
8.22	CCCCc1ncc(CNc2cc(N=[N+]=[N-])ccc2C(=O)O)n1Cc1ccc(C(=O)O)cc1 [compound 226]
8.36	CCCCc1ncc(CNc2ccccc2C(=O)O)n1Cc1ccc(C(=O)NS(=O)(=O)c2ccccc2)cc1 [compound 203]
8.17	CCCCc1nc(Cl)c(CNc2ccc(C)cc2C(=O)O)n1Cc1ccc(C(=O)O)cc1 [compound 45]
8.34	CCCCc1nc(SC)c(CNc2ccccc2C(=O)O)n1Cc1ccc(C(=O)O)cc1 [compound 198]
8.44	CCCCc1ncc(CNc2ccccc2C(=O)O)n1Cc1ccc(C(=O)O)cc1 [exemple 32, acide 2-[[[2-butyl-1-[(4-carboxyphényl)méthyl]-1H-imidazol-5-yl]méthyl]amino]-benzoïque]
8.82	CCCCc1ncc(CNc2ccccc2C(=O)O)n1Cc1ccc(C(=O)NS(=O)(=O)c2ccccc2C)cc1 [compound 67]
8.20	CCCCc1nc(C(F)(F)F)c(CNc2ccccc2C(=O)O)n1Cc1ccc(C(=O)O)cc1 [compound 43]

From patent EP0564356A1, “4-phenylaminomethylimidazole derivatives, process for their preparation, angiotensin II receptor antagonists and their application in therapy” (FOURNIER INDUSTRIE ET SANTE, priority 1992, dated 1993)
